Measurements reported in ChEMBL document CHEMBL4257449, “New N-(2-phenyl-4-oxo-1,3-thiazolidin-3-yl)-1,2-benzothiazole-3-carboxamides and acetamides as antimicrobial agents” (2017).
Values after ≈ are worked out from the molar mass of the structure shown.

Tests used:
Penicillium ochrochloron [1] = test: Antifungal activity against Penicillium ochrochloron ATCC 9112 after 72 hrs by serial dilution method; assay type: functional; details: ATCC 9112, 72 h
Bacillus cereus [2] = test: Antibacterial activity against Bacillus cereus after 24 hrs by microdilution method; assay type: functional
Bacillus cereus [3] = test: Bactericidal activity against Bacillus cereus incubated for 24 hrs followed by serial sub-cultivation and measured after 24 hrs by microdilution method; assay type: functional
Micrococcus flavus [4] = test: Antibacterial activity against Micrococcus flavus ATCC 10240 after 24 hrs by microdilution method; assay type: functional; details: ATCC 10240, 24 h
Micrococcus flavus [5] = test: Bactericidal activity against Micrococcus flavus ATCC 10240 incubated for 24 hrs followed by serial sub-cultivation and measured after 24 hrs by microdilution method; assay type: functional
Staphylococcus aureus [6] = test: Antibacterial activity against Staphylococcus aureus ATCC 6538 after 24 hrs by microdilution method; assay type: functional; details: ATCC 6538, 24 h
Staphylococcus aureus [7] = test: Bactericidal activity against Staphylococcus aureus ATCC 6538 incubated for 24 hrs followed by serial sub-cultivation and measured after 24 hrs by microdilution method; assay type: functional
Listeria monocytogenes [8] = test: Antibacterial activity against Listeria monocytogenes NCTC 7973 after 24 hrs by microdilution method; assay type: functional; details: NCTC 7973, 24 h
Listeria monocytogenes [9] = test: Bactericidal activity against Listeria monocytogenes NCTC 7973 incubated for 24 hrs followed by serial sub-cultivation and measured after 24 hrs by microdilution method; assay type: functional
Escherichia coli [10] = test: Antibacterial activity against Escherichia coli ATCC 35210 after 24 hrs by microdilution method; assay type: functional; details: ATCC 35210, 24 h
Escherichia coli [11] = test: Bactericidal activity against Escherichia coli ATCC 35210 incubated for 24 hrs followed by serial sub-cultivation and measured after 24 hrs by microdilution method; assay type: functional
Enterobacter cloacae [12] = test: Antibacterial activity against Enterobacter cloacae after 24 hrs by microdilution method; assay type: functional
Enterobacter cloacae [13] = test: Bactericidal activity against Enterobacter cloacae incubated for 24 hrs followed by serial sub-cultivation and measured after 24 hrs by microdilution method; assay type: functional
Pseudomonas aeruginosa [14] = test: Antibacterial activity against Pseudomonas aeruginosa ATCC 27853 after 24 hrs by microdilution method; assay type: functional; details: ATCC 27853, 24 h
Pseudomonas aeruginosa [15] = test: Bactericidal activity against Pseudomonas aeruginosa ATCC 27853 incubated for 24 hrs followed by serial sub-cultivation and measured after 24 hrs by microdilution method; assay type: functional
Salmonella typhimurium [16] = test: Antibacterial activity against Salmonella typhimurium ATCC 13311 after 24 hrs by microdilution method; assay type: functional, Salmonella enterica subsp. enterica serovar Typhimurium; details: Salmonella enterica, ATCC 13311, 24 h
Salmonella typhimurium [17] = test: Bactericidal activity against Salmonella typhimurium ATCC 13311 incubated for 24 hrs followed by serial sub-cultivation and measured after 24 hrs by microdilution method; assay type: functional, Salmonella enterica subsp. enterica serovar Typhimurium
Aspergillus versicolor [18] = test: Antifungal activity against Aspergillus versicolor ATCC 11730 after 72 hrs by serial dilution method; assay type: functional; details: ATCC 11730, 72 h
Aspergillus fumigatus [19] = test: Antifungal activity against Aspergillus fumigatus after 72 hrs by serial dilution method; assay type: functional
Aspergillus fumigatus [20] = test: Fungicidal activity against Aspergillus fumigatus incubated for 72 hrs followed by serial sub-cultivation for 72 hrs and measured after 72 hrs by serial dilution method; assay type: functional
Aspergillus versicolor [21] = test: Fungicidal activity against Aspergillus versicolor ATCC 11730 incubated for 72 hrs followed by serial sub-cultivation for 72 hrs and measured after 72 hrs by serial dilution method; assay type: functional
Aspergillus ochraceus [22] = test: Antifungal activity against Aspergillus ochraceus ATCC 12066 after 72 hrs by serial dilution method; assay type: functional; details: ATCC 12066, 72 h
Aspergillus ochraceus [23] = test: Fungicidal activity against Aspergillus ochraceus ATCC 12066 incubated for 72 hrs followed by serial sub-cultivation for 72 hrs and measured after 72 hrs by serial dilution method; assay type: functional
Aspergillus niger [24] = test: Antifungal activity against Aspergillus niger ATCC 6275 after 72 hrs by serial dilution method; assay type: functional; details: ATCC 6275, 72 h
Aspergillus niger [25] = test: Fungicidal activity against Aspergillus niger ATCC 6275 incubated for 72 hrs followed by serial sub-cultivation for 72 hrs and measured after 72 hrs by serial dilution method; assay type: functional
Trichoderma viride [26] = test: Antifungal activity against Trichoderma viride IAM 5061 after 72 hrs by serial dilution method; assay type: functional; details: IAM 5061, 72 h
Trichoderma viride [27] = test: Fungicidal activity against Trichoderma viride IAM 5061 incubated for 72 hrs followed by serial sub-cultivation for 72 hrs and measured after 72 hrs by serial dilution method; assay type: functional
Talaromyces funiculosus [28] = test: Antifungal activity against Penicillium funiculosum ATCC 36839 after 72 hrs by serial dilution method; assay type: functional; details: ATCC 36839, 72 h
Talaromyces funiculosus [29] = test: Fungicidal activity against Penicillium funiculosum ATCC 36839 incubated for 72 hrs followed by serial sub-cultivation for 72 hrs and measured after 72 hrs by serial dilution method; assay type: functional
Penicillium ochrochloron [30] = test: Fungicidal activity against Penicillium ochrochloron ATCC 9112 incubated for 72 hrs followed by serial sub-cultivation for 72 hrs and measured after 72 hrs by serial dilution method; assay type: functional
Candida albicans [31] = test: Antifungal activity against Candida albicans after 72 hrs by serial dilution method; assay type: functional
Candida albicans [32] = test: Fungicidal activity against Candida albicans incubated for 72 hrs followed by serial sub-cultivation for 72 hrs and measured after 72 hrs by serial dilution method; assay type: functional

Row | SMILES | MIC (Penicillium ochrochloron [1]) [µM] | MIC (Bacillus cereus [2]) [µM] | MBC99.5 (Bacillus cereus [3]) [×10⁻² umol/ml] | MIC (Micrococcus flavus [4]) [µM] | MBC99.5 (Micrococcus flavus [5]) [×10⁻² umol/ml] | MIC (Staphylococcus aureus [6]) [µM] | MBC99.5 (Staphylococcus aureus [7]) [×10⁻² umol/ml] | MIC (Listeria monocytogenes [8]) [µM] | MBC99.5 (Listeria monocytogenes [9]) [×10⁻² umol/ml] | MIC (Escherichia coli [10]) [µM] | MBC99.5 (Escherichia coli [11]) [×10⁻² umol/ml] | MIC (Enterobacter cloacae [12]) [µM] | MBC99.5 (Enterobacter cloacae [13]) [×10⁻² umol/ml] | MIC (Pseudomonas aeruginosa [14]) [µM] | MBC99.5 (Pseudomonas aeruginosa [15]) [×10⁻² umol/ml] | MIC (Salmonella typhimurium [16]) [µM] | MBC99.5 (Salmonella typhimurium [17]) [×10⁻² umol/ml] | MIC (Aspergillus versicolor [18]) [µM] | MIC (Aspergillus fumigatus [19]) [µM] | MFC99.5 (Aspergillus fumigatus [20]) [×10⁻² umol/ml] | further results
1 | O=C(NN1C(=O)CSC1c1c(F)cccc1Cl)c1nsc2ccccc12 (centres undefined) | 368 (≈ 150 µg/mL) | 196 (≈ 79.9 µg/mL) | 36.8 | 270 (≈ 110 µg/mL) | 36.8 | 196 (≈ 79.9 µg/mL) | 36.8 | 270 (≈ 110 µg/mL) | 36.8 | 270 (≈ 110 µg/mL) | 36.8 | 368 (≈ 150 µg/mL) | 73.5 | 196 (≈ 79.9 µg/mL) | 36.8 | 196 (≈ 79.9 µg/mL) | 36.8 | 184 (≈ 75 µg/mL) | 368 (≈ 150 µg/mL) | 73.5 | MFC99.5 (Aspergillus versicolor [21]): 73.5 ×10⁻² umol/ml; MIC (Aspergillus ochraceus [22]): 368 µM (≈ 150 µg/mL); MFC99.5 (Aspergillus ochraceus [23]): 73.5 ×10⁻² umol/ml; MIC (Aspergillus niger [24]): 368 µM (≈ 150 µg/mL); MFC99.5 (Aspergillus niger [25]): 73.5 ×10⁻² umol/ml; MIC (Trichoderma viride [26]): 138 µM (≈ 56.3 µg/mL); MFC99.5 (Trichoderma viride [27]): 18.4 ×10⁻² umol/ml; MIC (Talaromyces funiculosus [28]): 368 µM (≈ 150 µg/mL); MFC99.5 (Talaromyces funiculosus [29]): 73.5 ×10⁻² umol/ml; MFC99.5 (Penicillium ochrochloron [30]): 85.8 ×10⁻² umol/ml; MIC (Candida albicans [31]): 735 µM (≈ 300 µg/mL); MFC99.5 (Candida albicans [32]): 85.8 ×10⁻² umol/ml
2 | O=C(Cc1nsc2ccccc12)NN1C(=O)CSC1c1cccc(Cl)c1 (centres undefined) | 74 (≈ 29.9 µg/mL) | 198 (≈ 80 µg/mL) | 37.2 | 198 (≈ 80 µg/mL) | 37.2 | 100 (≈ 40.4 µg/mL) | 37.2 | 198 (≈ 80 µg/mL) | 37.2 | 198 (≈ 80 µg/mL) | 37.2 | 198 (≈ 80 µg/mL) | 37.2 | 198 (≈ 80 µg/mL) | 37.2 | 100 (≈ 40.4 µg/mL) | 37.2 | 100 (≈ 40.4 µg/mL) | 100 (≈ 40.4 µg/mL) | 37.2 | MFC99.5 (Aspergillus versicolor [21]): 19.2 ×10⁻² umol/ml; MIC (Aspergillus ochraceus [22]): 74 µM (≈ 29.9 µg/mL); MFC99.5 (Aspergillus ochraceus [23]): 10 ×10⁻² umol/ml; MIC (Aspergillus niger [24]): 100 µM (≈ 40.4 µg/mL); MFC99.5 (Aspergillus niger [25]): 19.2 ×10⁻² umol/ml; MIC (Trichoderma viride [26]): 50 µM (≈ 20.2 µg/mL); MFC99.5 (Trichoderma viride [27]): 10 ×10⁻² umol/ml; MIC (Talaromyces funiculosus [28]): 100 µM (≈ 40.4 µg/mL); MFC99.5 (Talaromyces funiculosus [29]): 19.8 ×10⁻² umol/ml; MFC99.5 (Penicillium ochrochloron [30]): 10 ×10⁻² umol/ml; MIC (Candida albicans [31]): 100 µM (≈ 40.4 µg/mL); MFC99.5 (Candida albicans [32]): 19.8 ×10⁻² umol/ml
